Results reported in ChEMBL document CHEMBL6074662, “Antibacterial, Antibiofilm, and Anti-inflammatory Effects of a Novel Thrombin-Derived Peptide in Sepsis Models: Insights into Underlying Mechanisms” (J Med Chem, 2024).
Values after ≈ are worked out from the molar mass of the structure shown. Active and inactive are the calls of the source. The rule behind the calls is not given here. Where a SMILES comes first, the peptide text is derived from it. Bridges are numbered along the chain shown (N, C = ends). [ ]: non-standard residue; d: D form. The star is where a group is joined. X1 = CC[C@H](C)CCCCC(=O)*; dDab = NCC[C@@H](N)C(=O)O; Dab = NCC[C@H](N)C(=O)O

How the values were obtained:
Escherichia coli [1] = experiment: Induction of resistance development in Escherichia coli KCTC 1682 assessed as fold increase in MIC at 0.5 times MIC measured after 30 passages relative to control; format: functional
Staphylococcus aureus [2] = experiment: Antibacterial activity against methicillin-resistant Staphylococcus aureus CCARM 3089 incubated for 24 hrs by broth microdilution method; format: functional
Pseudomonas aeruginosa [3] = experiment: Antibacterial activity against multi-drug resistant Pseudomonas aeruginosa CCARM 2095 incubated for 24 hrs by broth microdilution method; format: functional
Lipopolysaccharide (LPS) = experiment: Disaggregation of FITC-labeled Escherichia coli 0111:B4 LPS assessed as increase in fluorescence intensity at higher concentration
Enterococcus faecium = experiment: Antibacterial activity against vancomycin-resistant Enterococcus faecium ATCC 51559 incubated for 24 hrs by CLSI based broth microdilution method; format: functional
Acinetobacter baumannii [4] = experiment: Antibacterial activity against multidrug-resistant Acinetobacter baumannii 329-53 incubated for 24 hrs by CLSI based broth microdilution method; format: functional
Acinetobacter baumannii [5] = experiment: Antibacterial activity against multidrug-resistant Acinetobacter baumannii 329-97 incubated for 24 hrs by CLSI based broth microdilution method; format: functional
Acinetobacter baumannii [6] = experiment: Antibacterial activity against carbapenem-resistant Acinetobacter baumannii CCARM 12005 incubated for 24 hrs by CLSI based broth microdilution method; format: functional
Acinetobacter baumannii [7] = experiment: Antibacterial activity against carbapenem-resistant Acinetobacter baumannii NMS 1707 incubated for 24 hrs by CLSI based broth microdilution method; format: functional
Acinetobacter baumannii [8] = experiment: Antibacterial activity against carbapenem-resistant Acinetobacter baumannii NMS 1915 incubated for 24 hrs by CLSI based broth microdilution method; format: functional
[9] = Hemolytic activity in sheep RBC incubated for 1 hr by absorbance based assay; format: toxicity, cell-based, Ovis aries; conditions: erythrocyte
Escherichia coli [10] = experiment: Induction of inner membrane permeabilization in Escherichia coli KCTC 1682 at MIC by PI staining based flow cytometry (reference value: 1.51 %); format: functional
Staphylococcus aureus [11] = experiment: Bactericidal activity against methicillin-resistant Staphylococcus aureus CCARM 3089 at 128 to 512 uM incubated for 12 hrs by time-kill assay; format: functional, organism-based; conditions: dose 128-512 µM
Pseudomonas aeruginosa [12] = experiment: Bactericidal activity against multidrug-resistant Pseudomonas aeruginosa CCARM 2095 at 128 to 512 uM incubated for 12 hrs by time-kill assay; format: functional, organism-based; conditions: dose 128-512 µM
Bacillus subtilis = experiment: Antibacterial activity against Bacillus subtilis KCTC 3068 incubated for 24 hrs by CLSI based broth microdilution method; format: functional
[13] = Hydrophobicity of compound assessed as retention time by RP-HPLC analysis; format: physicochemical
Staphylococcus aureus [14] = experiment: Antibacterial activity against Staphylococcus aureus KCTC 1621 incubated for 24 hrs by CLSI based broth microdilution method; format: functional
[15] = test system: Staphylococcus epidermidis; experiment: Antibacterial activity against Staphylococcus epidermidis KCTC 1917 incubated for 24 hrs by CLSI based broth microdilution method; format: functional
Staphylococcus aureus [16] = experiment: Antibacterial activity against methicillin-resistant Staphylococcus aureus CCARM 3089 incubated for 24 hrs by CLSI based broth microdilution method; format: functional
Staphylococcus aureus [17] = experiment: Antibacterial activity against methicillin-resistant Staphylococcus aureus CCARM 3090 incubated for 24 hrs by CLSI based broth microdilution method; format: functional
Staphylococcus aureus [18] = experiment: Antibacterial activity against methicillin-resistant Staphylococcus aureus CCARM 3095 incubated for 24 hrs by CLSI based broth microdilution method; format: functional
Escherichia coli [19] = experiment: Antibacterial activity against Escherichia coli KCTC 1682 incubated for 24 hrs by CLSI based broth microdilution method; format: functional
Pseudomonas aeruginosa [20] = experiment: Antibacterial activity against Pseudomonas aeruginosa KCTC 1637 incubated for 24 hrs by CLSI based broth microdilution method; format: functional
Salmonella typhimurium = experiment: Antibacterial activity against Salmonella typhimurium KCTC 1926 incubated for 24 hrs by CLSI based broth microdilution method; format: functional, Salmonella enterica subsp. enterica serovar Typhimurium; conditions: Salmonella enterica
Pseudomonas aeruginosa [21] = experiment: Antibacterial activity against multidrug-resistant Pseudomonas aeruginosa CCARM 2095 incubated for 24 hrs by CLSI based broth microdilution method; format: functional
Pseudomonas aeruginosa [22] = experiment: Antibacterial activity against multidrug-resistant Pseudomonas aeruginosa CCARM 2109 incubated for 24 hrs by CLSI based broth microdilution method; format: functional
[23] = Hemolytic activity in sheep RBC at 256 uM incubated for 1 hr by absorbance based assay; format: toxicity, cell-based, Ovis aries, Erythrocyte; conditions: sheep red blood cells, read-out: Activity
[24] = Effect on secondary structure of drug in PBS assessed as formation of random coil structure at 150 uM by CD analysis; format: physicochemical; conditions: buffer
[25] = Effect on secondary structure of drug in TFE assessed as fold increase in formation of alpha-helical conformation at 150 uM by CD analysis relative to HVF18; format: physicochemical
[26] = Effect on secondary structure of drug in SDS assessed as fold increase in formation of alpha-helical conformation at 150 uM by CD analysis relative to HVF18; format: physicochemical
[27] = Effect on secondary structure of drug in LPS assessed as fold increase in formation of alpha-helical conformation at 150 uM by CD analysis relative to HVF18; format: physicochemical
Pseudomonas aeruginosa [28] = experiment: Inhibition of biofilm formation in multi-drug resistant Pseudomonas aeruginosa CCARM 2095 at 4 to 8 uM by crystal violet staining based analysis relative to control; format: functional; conditions: dose 4-8 µM
Pseudomonas aeruginosa [29] = experiment: Eradication of biofilm formation in multi-drug resistant Pseudomonas aeruginosa CCARM 2095 at 32 uM incubated for 12 hrs by CLSM analysis relative to control; format: functional
Acinetobacter baumannii [30] = experiment: Antibacterial activity against carbapenem-resistant Acinetobacter baumannii 1707 incubated for 24 hrs by CLSI based broth microdilution method; format: functional, organism-based
Acinetobacter baumannii [31] = experiment: Antibacterial activity against carbapenem-resistant Acinetobacter baumannii 1915 incubated for 24 hrs by CLSI based broth microdilution method; format: functional, organism-based

Compound	MIC (Enterococcus faecium) [µM]	MIC (Acinetobacter baumannii [4]) [µM]	MIC (Acinetobacter baumannii [5]) [µM]	MIC (Acinetobacter baumannii [6]) [µM]	MIC (Acinetobacter baumannii [7]) [µM]	MIC (Acinetobacter baumannii [8]) [µM]	HC10 [9] [µM]	MIC (Bacillus subtilis) [µM]	Retention_time [13] [min]	MIC (Staphylococcus aureus [14]) [µM]	MIC [15] [µM]	MIC (Staphylococcus aureus [16]) [µM]	MIC (Staphylococcus aureus [17]) [µM]	MIC (Staphylococcus aureus [18]) [µM]	MIC (Escherichia coli [19]) [µM]	MIC (Pseudomonas aeruginosa [20]) [µM]	MIC (Salmonella typhimurium) [µM]	MIC (Pseudomonas aeruginosa [21]) [µM]	MIC (Pseudomonas aeruginosa [22]) [µM]	hemolysis at 1 h, 256 µM [23] [%]	further results
O=C(O)c1cn(C2CC2)c2cc(N3CCNCC3)c(F)cc2c1=O [CIPROFLOXACIN]																					fold change (FC) (Escherichia coli [1]): 8192; MIC (Staphylococcus aureus [2]): 1020 µM (≈ 339 µg/mL); MIC (Pseudomonas aeruginosa [3]): 1020 µM (≈ 339 µg/mL)
CC(C)CCCCC(=O)N[C@@H](CCN)C(=O)N[C@H](C(=O)N[C@@H](CCN)C(=O)N[C@H]1CCNC(=O)[C@H]([C@@H](C)O)NC(=O)[C@H](CCN)NC(=O)[C@H](CCN)NC(=O)[C@H](CC(C)C)NC(=O)[C@@H](Cc2ccccc2)NC(=O)[C@@H](CCN)NC1=O)[C@@H](C)O.CC[C@H](C)CCCCC(=O)N[C@@H](CCN)C(=O)N[C@H](C(=O)N[C@@H](CCN)C(=O)N[C@H]1CCNC(=O)[C@H]([C@@H](C)O)NC(=O)[C@H](CCN)NC(=O)[C@H](CCN)NC(=O)[C@H](CC(C)C)NC(=O)[C@@H](Cc2ccccc2)NC(=O)[C@@H](CCN)NC1=O)[C@@H](C)O (X1-[Dab]T[Dab][Dab][dDab][dF]L[Dab][Dab]T; lactam 4-C)																					Activity (Lipopolysaccharide (LPS)): inactive
CC[C@H](C)[C@H](NC(=O)CN)C(=O)NCC(=O)N[C@@H](C)C(=O)N[C@H](C(=O)N[C@@H](CC(C)C)C(=O)N[C@@H](CCCCN)C(=O)N[C@H](C(=O)N[C@@H](CC(C)C)C(=O)N[C@H](C(=O)N[C@H](C(=O)NCC(=O)N[C@@H](CC(C)C)C(=O)N1CCC[C@H]1C(=O)N[C@@H](C)C(=O)N[C@@H](CC(C)C)C(=O)N[C@H](C(=O)N[C@@H](CO)C(=O)N[C@@H](Cc1c[nH]c2ccccc12)C(=O)N[C@H](C(=O)N[C@@H](CCCCN)C(=O)N[C@@H](CCCNC(=N)N)C(=O)N[C@@H](CCCCN)C(=O)N[C@@H](CCCNC(=N)N)C(=O)N[C@@H](CCC(N)=O)C(=O)N[C@@H](CCC(N)=O)C(N)=O)[C@@H](C)CC)[C@@H](C)CC)[C@@H](C)O)[C@@H](C)O)C(C)C)C(C)C [MELITTIN]	2 (≈ 5.69 µg/mL)	2 (≈ 5.69 µg/mL)	2 (≈ 5.69 µg/mL)	8 (≈ 22.8 µg/mL)	8 (≈ 22.8 µg/mL)	4 (≈ 11.4 µg/mL)	2.2														Activity (Escherichia coli [10]): ~100%
Cc1onc(-c2ccccc2)c1C(=O)N[C@@H]1C(=O)N2[C@@H]1SC(C)(C)[C@@H]2C(=O)O [OXACILLIN]																					MIC (Staphylococcus aureus [2]): 2050 µM (≈ 822 µg/mL); MIC (Pseudomonas aeruginosa [3]): 4100 µM (≈ 1640 µg/mL); Activity (Staphylococcus aureus [11]): inactive; Activity (Pseudomonas aeruginosa [12]): inactive
CN(C)[C@@H]1C(O)=C(C(N)=O)C(=O)[C@@]2(O)C(O)=C3C(=O)c4c(O)cccc4[C@@](C)(O)[C@H]3C[C@@H]12 [TETRACYCLINE]																					fold change (FC) (Escherichia coli [1]): 256
H-GVFRLKKWIRKVIRRWGR-NH2	4	8	2	8	8	4	116	4	22.99	8	8	4	4	8	16	8	4	2	16	20.4	Activity [24]: Active; fold change (FC) [25]: ~ 5; fold change (FC) [26]: ~ 5; fold change (FC) [27]: ~ 5
CC[C@H](C)[C@H](NC(=O)[C@H](CCCCN)NC(=O)[C@H](CCC(=O)O)NC(=O)[C@H](CCCCN)NC(=O)[C@H](CO)NC(=O)[C@H](CCCCN)NC(=O)[C@H](CCCNC(=N)N)NC(=O)[C@H](Cc1ccccc1)NC(=O)[C@H](Cc1ccccc1)NC(=O)[C@H](CC(=O)O)NC(=O)CNC(=O)[C@H](CC(C)C)NC(=O)[C@@H](N)CC(C)C)C(=O)NCC(=O)N[C@@H](CCCCN)C(=O)N[C@@H](CCC(=O)O)C(=O)N[C@@H](Cc1ccccc1)C(=O)N[C@@H](CCCCN)C(=O)N[C@@H](CCCNC(=N)N)C(=O)N[C@H](C(=O)N[C@H](C(=O)N[C@@H](CCC(N)=O)C(=O)N[C@@H](CCCNC(=N)N)C(=O)N[C@H](C(=O)N[C@@H](CCCCN)C(=O)N[C@@H](CC(=O)O)C(=O)N[C@@H](Cc1ccccc1)C(=O)N[C@@H](CC(C)C)C(=O)N[C@@H](CCCNC(=N)N)C(=O)N[C@@H](CC(N)=O)C(=O)N[C@@H](CC(C)C)C(=O)N[C@H](C(=O)N1CCC[C@H]1C(=O)N[C@@H](CCCNC(=N)N)C(=O)N[C@H](C(=O)N[C@@H](CCC(=O)O)C(=O)N[C@@H](CO)C(=O)O)[C@@H](C)O)C(C)C)[C@@H](C)CC)C(C)C)[C@@H](C)CC [CATHELICIDIN]																					inhibition (INH) (Pseudomonas aeruginosa [28]): >50%; Activity (Pseudomonas aeruginosa [29]): >50%
C[C@@H](O)[C@H]1C(=O)N2C(C(=O)O)=C(SCCNC=N)C[C@H]12																					Activity (Acinetobacter baumannii [30]): inactive; Activity (Acinetobacter baumannii [31]): inactive
O=C(N[C@H](CO)[C@H](O)c1ccc([N+](=O)[O-])cc1)C(Cl)Cl [CHLORAMPHENICOL]																					MIC (Staphylococcus aureus [2]): 1020 µM (≈ 331 µg/mL); MIC (Pseudomonas aeruginosa [3]): 4100 µM (≈ 1320 µg/mL)
H-GVFRLKKWIQKVIKQWGK-NH2	8	8	1	4	2	2	212	4	25.16	8	4	8	8	8	8	8	4	4	16	12.2	Activity [24]: Active; fold change (FC) [25]: ~ 5; fold change (FC) [26]: ~ 5; fold change (FC) [27]: ~ 5
H-GVFRLKKWIQKVIRQWGR-NH2	8	4	2	4	2	2	122	2	25.15	8	4	8	8	4	8	8	4	2	16	21.2	Activity [24]: Active; fold change (FC) [25]: ~ 5; fold change (FC) [26]: ~ 5; fold change (FC) [27]: ~ 5
H-HVFRLKKWIQKVIDQFGE-OH	> 128	4	4	4	32	64	> 256	32	25.53	128	16	> 128	> 128	> 128	32	128	32	128	> 128	7.8	
